Source: patent publication US9604931B2, “Nuclear receptor binding agents” (GTx, Inc., priority 2007, dated 2017)
Entries after “also recorded” stand apart in the source; their conditions may differ.

Legend:
[1] = molecular target: ERα ligand binding domain (Homo sapiens, UniProt P03372); experiment: Competitive [3H]-estradiol binding assay, ER-α (Example 21)
Protocol: ER binding affinity was determined via one of the following methods:
Briefly, the incubation mixture was filtered through a high affinity protein binding filter, and washed several times to remove any unbound radioactivity. The filter plate was air dried and sealed on the bottom.
Nonspecific binding was subtracted from total binding to yield specific binding.

ER-α [2] = molecular target: T1, ER-α (Rattus norvegicus (Rat), UniProt P06211); assay type: cell-based; conditions: for Estradiol activity at 100 nM of NRBA, ER-α: 100 nM compound compared to 1 nM estradiol
Method in brief: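 COS or 293 cells in phenol red-free medium with charcoal-stripped FBS, transfected with a 2×ERE firefly luciferase reporter, CMV-Renilla control and rat-cloned receptor. Compounds, estrogen or DHT added 24 h post transfection, alone or combined; firefly and Renilla luciferase read 48 h after transfection.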

ER-α [3] = molecular target: T1, ER-α; experiment: Transient transactivation assay in HEK-293 cells, ER-α and ERE-LUC; assay type: cell-based
Protocol: Human estrogen receptors (ER-α and ER-β) were cloned from prostate cDNA into a pCR3.1 plasmid vector backbone. PGC-1 was cloned into mammalian two hybrid vector pACT. ER-β H475 was mutated to alanine using site-directed mutagenesis. Sequencing was performed to determine the absence of any non specific mutations. SHP promoter (−572 to +10) (26) was cloned into pGL3 basic LUC reporter vector and human FXR was cloned into pCR3.1. HEK-293 cells were plated at 100,000 cells per well of a 24 well plate in […] (DMEM)+5% charcoal-stripped fetal bovine serum (csFBS). The cells were transfected using Lipofectamine (Invitrogen, Carlsbad, Calif.) with 0.25 μg ERE-LUC, 0.02 μg CMV-LUC (renilla luciferase) and 12.5 ng of rat ER-α or 25 ng rat ER-β. […] Luciferase assays were performed 48 hrs after transfection.
To determine if the selectivity in ER binding also translated into ER-β-selective activity, transient transactivation assays were performed in HEK-293 cells transfected with plasmids encoding ER-α or ER-β and ERE-LUC. The cells were treated with varying concentrations of the ligands and their EC50 values were determined.

ER-β = ER-β (Rattus norvegicus (Rat), UniProt Q62986); experiment: Transient transactivation assay in HEK-293 cells, ER-β and ERE-LUC; assay type: cell-based; conditions: for Function on ER-β in transactivation: HEK-293 cells
Protocol: Human estrogen receptors (ER-α and ER-β) were cloned from prostate cDNA into a pCR3.1 plasmid vector backbone. PGC-1 was cloned into mammalian two hybrid vector pACT. ER-β H475 was mutated to alanine using site-directed mutagenesis. Sequencing was performed to determine the absence of any non specific mutations. […] HEK-293 cells were plated at 100,000 cells per well of a 24 well plate in […] (DMEM)+5% charcoal-stripped fetal bovine serum (csFBS). […] Luciferase assays were performed 48 hrs after transfection.
The cells were treated with varying concentrations of the ligands and their EC50 values were determined.

[4] = tested on: high fat diet (HFD) induced obesity model; experiment: High fat diet induced obesity, prevention studies; assay type: in vivo, C57BL6 male mice; conditions: for Prevention of the increase in body fat (MRI) / Prevention of body weight increase caused by the high fat diet: Study 2, 30 mg/kg/day s.c.; for Lean mass (MRI): Study 2, high fat diet; for Fat mass (MRI): Study 2, versus high fat diet and vehicle
Protocol: The mice were treated for 12 weeks.

PPAR-α = PPAR-α transactivation (PPRE-LUC) in HEK-293 cells co-transfected with ER-β; assay type: cell-based
Protocol: FIG. 12 depicts the effect of ER-β ligand on PPAR-γ function through ligand binding domain (LBD). (A). HEK-293 cells were transfected with 0.25 μg PPRE-LUC, 5 ng CMV-renilla LUC and the indicated receptors (PPAR-γ and ER-β for the left panel and PPAR-α and ER-β for the right panel). The cells were treated 24 hrs after transfection with the indicated ligands and harvested 48 hrs after transfection and firefly luciferase activity was measured and normalized to renilla luciferase. (B). H475 in ER-β LBD is important for its function. H475 in ER-β LBD was mutated to alanine (A) using a site directed mutagenesis kit. Transactivation assay was performed as described in panel A in HEK-293 cells with a titration of ER-β ligands in wild type (WT) or ER-β H475A. (C). […] The cells were treated 24 hrs after transfection with the indicated ligands and harvested 48 hrs after transfection and firefly luciferase activity was measured and normalized to renilla luciferase. […] The cells were treated 24 hrs after transfection with the indicated ligands and harvested 48 hrs after transfection and firefly luciferase activity was measured and normalized to renilla luciferase. […] The cells were treated 24 hrs after transfection with the indicated ligands and harvested 48 hrs after transfection and firefly luciferase activity was measured and normalized to renilla luciferase. […]

SHP promoter = experiment: SHP promoter-luciferase assay in HEK-293 cells; assay type: cell-based; conditions: transfected with FXR and ER-β
Protocol: FIG. 12 depicts the effect of ER-β ligand on PPAR-γ function through ligand binding domain (LBD). (A). HEK-293 cells were transfected with 0.25 μg PPRE-LUC, 5 ng CMV-renilla LUC and the indicated receptors (PPAR-γ and ER-β for the left panel and PPAR-α and ER-β for the right panel). The cells were treated 24 hrs after transfection with the indicated ligands and harvested 48 hrs after transfection and firefly luciferase activity was measured and normalized to renilla luciferase. (B). H475 in ER-β LBD is important for its function. H475 in ER-β LBD was mutated to alanine (A) using a site directed mutagenesis kit. Transactivation assay was performed as described in panel A in HEK-293 cells with a titration of ER-β ligands in wild type (WT) or ER-β H475A. (C). […] HEK-293 cells were transfected with 0.25 μg PPRE-LUC, 5 ng CMV-renilla LUC and 50 ng of the indicated receptors (PPAR-γ or PPAR-γ and wild type ER-β or PPAR-γ and ER-β H475A). The cells were treated 24 hrs after transfection with the indicated ligands and harvested 48 hrs after transfection and firefly luciferase activity was measured and normalized to renilla luciferase. (D). […] HepG2 cells were transfected with 0.25 μg PPRE-LUC, 5 ng CMV-renilla LUC, 0.5 μg PGC-1 or vector backbone and 100 ng of the indicated receptors (PPAR-γ or PPAR-γ and wild type ER-β or PPAR-γ and ER-β H475A for top panels and PPAR-α or PPAR-α and ER-β for bottom panel). The cells were treated 24 hrs after transfection with the indicated ligands and harvested 48 hrs after transfection and firefly luciferase activity was measured and normalized to renilla luciferase. (E). SHP-1 is an ER-β specific target gene. HEK-293 cells were transfected with 0.25 μg SHP-LUC, 5 ng CMV-renilla LUC and 50 ng of the indicated receptors (FXR and ER-α for the left panel and FXR and ER-β for the right panel). The cells were treated 24 hrs after transfection with the indicated ligands and harvested 48 hrs after transfection and firefly luciferase activity was measured and normalized to renilla luciferase. PPAR—peroxisome proliferator and activated receptor; ER—estrogen receptor; H—histidine; A—alanine; RLU—relative luciferase units; Tro—troglitazone; PGC-1—PPAR-γ coactivator; SHP—small heterodimer partner; FXR—farsenoid X receptor.
Human estrogen receptors (ER-α and ER-β) were cloned from prostate cDNA into a pCR3.1 plasmid vector backbone. PGC-1 was cloned into mammalian two hybrid vector pACT. ER-β H475 was mutated to alanine using site-directed mutagenesis. Sequencing was performed to determine the absence of any non specific mutations. SHP promoter (−572 to +10) (26) was cloned into pGL3 basic LUC reporter vector and human FXR was cloned into pCR3.1. […]

[5] = molecular target: ER-α ligand binding domain (LBD) (Homo sapiens (Human), UniProt P03372); experiment: Ligand binding assay of 14m and 12u, ER-α (Example 22A)
[6] = high fat diet, 30 mg/kg/day s.c., 12 weeks
[7] = high fat diet, 30 mg/kg/day s.c.

Sequence of ERα ligand binding domain (P03372 whole entry, looked up, the tested form may be a part): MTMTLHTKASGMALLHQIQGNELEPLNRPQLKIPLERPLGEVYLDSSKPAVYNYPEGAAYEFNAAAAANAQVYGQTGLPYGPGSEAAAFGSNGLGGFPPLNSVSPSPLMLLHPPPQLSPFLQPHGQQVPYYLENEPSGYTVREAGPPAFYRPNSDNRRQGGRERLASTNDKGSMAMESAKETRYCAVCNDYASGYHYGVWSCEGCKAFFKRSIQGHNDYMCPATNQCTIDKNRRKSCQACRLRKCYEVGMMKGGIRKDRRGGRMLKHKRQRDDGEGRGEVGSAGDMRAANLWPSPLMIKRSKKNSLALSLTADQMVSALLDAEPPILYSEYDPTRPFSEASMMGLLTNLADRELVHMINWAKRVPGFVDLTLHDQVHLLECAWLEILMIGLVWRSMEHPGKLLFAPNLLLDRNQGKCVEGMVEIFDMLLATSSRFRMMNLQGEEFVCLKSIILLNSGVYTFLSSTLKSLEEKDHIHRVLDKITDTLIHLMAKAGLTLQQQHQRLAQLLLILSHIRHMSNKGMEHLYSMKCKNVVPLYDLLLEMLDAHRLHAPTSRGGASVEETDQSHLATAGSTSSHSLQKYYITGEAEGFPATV
Sequence of ER-α ligand binding domain (LBD) (P03372 whole entry, looked up, species assumed, the tested form may be a part): as the sequence (P03372 whole entry, looked up, the tested form may be a part) above

| SMILES | Estradiol activity at 100 nM of NRBA, ER-α (ER-α [2]) [%] | Function on ER-α in transactivation (ER-α [3]) | EC50 (ER-β) [nM] | Function on ER-β in transactivation (ER-β) | Prevention of the increase in body fat (MRI) [4] | Prevention of body weight increase caused by the high fat diet ([4]; 12 weeks) | Lean mass (MRI) [4] | Fat mass (MRI) [4] | Body weight versus normal diet controls [4, 6] | Gastrocnemius muscle weight ([4]; high fat diet, 12 weeks) | Serum testosterone levels ([4]; high fat diet, 12 weeks) | Testes weights ([4]; high fat diet, 12 weeks) | White adipose tissue (WAT) weight ([4]; high fat diet, 12 weeks) | WY14643 induced PPAR-α transactivation (PPAR-α) | SHP promoter activity (SHP promoter) | Ki [5] [nM] | other results |
| --- | --- | --- | --- | --- | --- | --- | --- | --- | --- | --- | --- | --- | --- | --- | --- | --- | --- |
| O=c1c2c(O)cc(O)cc2c(Br)cn1-c1ccc(O)cc1 [12u, 4-bromo-6,8-dihydroxy-2-(4-hydroxyphenyl)isoquinolin-1(2H)-one] | 62 | agonists | < 10 | agonists | more than 50% | more than 50% | increased muscle mass; also recorded: increased the lean mass | reduced fat mass; also recorded: significant reduction in fat mass | statistically indistinguishable from the normal diet controls | increased gastrocnemius muscle weight | did not affect the serum testosterone levels; also recorded: not altered | not altered | prevented the increase in the WAT weight; also recorded: decreased WAT weight | did not affect | neither of the ligands activated SHP | 40 | inhibition at 0.1 µM ([1]; 100 nM of compound, read-out: Percent Inhibition of [3H]-Estradiol Binding to ER-α): 61.3%; Classification as ER-α agonist (ER-α [2]): ER-α agonists |
| N#Cc1cn(-c2ccc(O)cc2)c(=O)c2c(O)cc(O)cc12 [14m, 6,8-dihydroxy-2-(4-hydroxyphenyl)-1-oxo-1,2-dihydroisoquinoline-4-carbonitrile] | 49 | agonists | < 10 | agonists | more than 50% | more than 50% | increased muscle mass; also recorded: increased the lean mass | reduced fat mass; also recorded: significant reduction in fat mass | statistically indistinguishable from control mice; also recorded: statistically indistinguishable from the normal diet controls | increased gastrocnemius muscle weight | did not affect the serum testosterone levels; also recorded: not altered | not altered | prevented the increase in the WAT weight; also recorded: significantly reduced; also recorded: decreased WAT weight | did not affect | neither of the ligands activated SHP | 94 | Ki ([1]; read-out: ER-α binding constant (Ki)): 94 nM; Accumulation of fat in liver (oil red staining) ([4]; high fat diet): attenuated the accumulation of lipid droplets in the liver; also recorded: completely prevented the accumulation of fat in the liver; Serum cholesterol increase ([4]; high fat diet): significantly reversed; Serum leptin increase ([4]; high fat diet): significantly reversed; Serum macrophage inflammatory protein-1β (MIP-1β) ([4]; high fat diet): undetectable levels; Bone mineral content (BMC, DEXA) [4, 7]: prevented the loss in BMC; Feed consumption / total caloric intake [4, 7]: did not affect total caloric intake; Body fat (DEXA) [4, 6]: suppressing fat mass formation; Reduction in body weight compared to high fat diet and vehicle [4, 6]: greater than 85%; Weight gained more than normal diet-fed controls [4, 6]: 5%; Blood glucose levels in glucose tolerance test ([4]; high fat diet, 150 mg glucose orally): not statistically different from the normal diet controls; Serum follicle stimulating hormone (FSH) levels ([4]; high fat diet, 12 weeks): did not affect serum testosterone and follicle stimulating hormone (FSH) levels |
